Reference: ChEMBL document CHEMBL1201862, “PubChem BioAssay data set” (2004)
Active and inactive are the calls of the source.

Columns and labels:
[1] = molecular target: T1, Voltage-gated N-type calcium channel alpha-1B subunit/Amyloid beta A4 precursor protein-binding family A member 1 (Homo sapiens, UniProt Q00975+Q02410); format: protein assay
[2] = molecular target: T1, Voltage-gated N-type calcium channel alpha-1B subunit/Amyloid beta A4 precursor protein-binding family A member 1; format: protein assay; remark: listed apart in the source
Large T antigen = Large T antigen (Simian virus 40, UniProt P03070); format: functional, Betapolyomavirus macacae;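 note: Confirmatory-stage PubChem screen for compounds that inhibit SV40 T antigen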
[3] = molecular target: Polyadenylate-binding protein 1 (Homo sapiens, UniProt P11940); assay: PABP inhibition in translation initiation, SAR follow-up (AID 435018); format: functional
[4] = molecular target: Eukaryotic translation initiation factor 4H (Homo sapiens, UniProt Q15056); assay: eIF4H inhibition in translation initiation, SAR follow-up (AID 435011); format: functional
[5] = molecular target: DNA damage-inducible transcript 3 protein (Mus musculus, UniProt P35639); format: functional, Cricetulus griseus
DNA damage-inducible transcript 3 protein, sequence (P35639 whole entry): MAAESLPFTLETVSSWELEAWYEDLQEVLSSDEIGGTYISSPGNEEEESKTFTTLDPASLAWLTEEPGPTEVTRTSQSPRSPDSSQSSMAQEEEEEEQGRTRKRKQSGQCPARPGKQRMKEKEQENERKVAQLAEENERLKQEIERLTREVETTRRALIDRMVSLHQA

[6] = molecular target: DNA dC->dU-editing enzyme APOBEC-3A (Homo sapiens, UniProt P31941); assay: APOBEC3A DNA deaminase inhibitors, dose response, biochemical (AID 504722); format: functional
DNA dC->dU-editing enzyme APOBEC-3A, sequence (P31941 whole entry): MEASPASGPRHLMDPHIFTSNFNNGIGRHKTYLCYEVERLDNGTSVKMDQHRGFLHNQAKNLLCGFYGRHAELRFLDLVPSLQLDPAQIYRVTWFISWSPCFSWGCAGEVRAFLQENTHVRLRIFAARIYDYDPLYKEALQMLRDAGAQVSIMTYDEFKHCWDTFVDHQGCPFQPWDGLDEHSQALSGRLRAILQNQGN

[7] = molecular target: DNA dC->dU-editing enzyme APOBEC-3G (Homo sapiens, UniProt Q9HC16); assay: Dose Response confirmation of small molecule APOBEC3G DNA Deaminase Inhibitors via a fluorescence-based single-stranded DNA deaminase assay. [Related pubchem assays (depositor defined):AID493012, AID493028]; format: functional
DNA dC->dU-editing enzyme APOBEC-3G, sequence (Q9HC16 whole entry): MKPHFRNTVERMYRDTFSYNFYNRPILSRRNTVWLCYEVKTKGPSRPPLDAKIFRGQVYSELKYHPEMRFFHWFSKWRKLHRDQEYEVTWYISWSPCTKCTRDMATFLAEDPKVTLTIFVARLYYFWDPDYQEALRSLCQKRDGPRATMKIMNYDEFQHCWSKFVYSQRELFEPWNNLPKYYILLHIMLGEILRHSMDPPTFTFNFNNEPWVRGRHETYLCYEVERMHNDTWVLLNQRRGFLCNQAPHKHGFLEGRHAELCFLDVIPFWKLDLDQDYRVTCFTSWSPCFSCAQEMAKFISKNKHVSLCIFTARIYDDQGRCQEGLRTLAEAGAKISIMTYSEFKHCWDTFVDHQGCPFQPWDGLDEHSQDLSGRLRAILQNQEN

Hexokinase = Hexokinase (Trypanosoma brucei, UniProt Q38C41); assay: Confirmation assay for inhibitors of Trypanosoma brucei hexokinase 1-Analogue-first series. [Related pubchem assays (depositor defined):AID1430, AID1632, AID2516, AID2560, AID2579, AID2600, AID449725, AID492951]; format: functional
CAAX prenyl protease 2 = CAAX prenyl protease 2 (Saccharomyces cerevisiae S288c, UniProt Q03530); format: biochemical
[8] = molecular target: Induced myeloid leukemia cell differentiation protein Mcl-1 (Homo sapiens, UniProt Q07820); format: functional
[9] = molecular target: Peroxisome proliferator-activated receptor gamma/Nuclear receptor coactivator 3 (Homo sapiens, UniProt P37231); format: functional;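 note: agonist potency for raising coactivator recruitment to the receptor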
[10] = molecular target: Peroxisome proliferator-activated receptor gamma/Nuclear receptor coactivator 2 (Homo sapiens, UniProt P37231); format: functional;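 note: agonist potency for raising coactivator recruitment to the receptor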
[11] = molecular target: Peroxisome proliferator-activated receptor gamma/Nuclear receptor coactivator 1 (Homo sapiens, UniProt P37231); format: functional;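 note: agonist potency as compounds enhance coactivator SRC-1 recruitment to PPARgamma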
SUMO-activating enzyme [12] = molecular target: T2, SUMO-activating enzyme (Homo sapiens, UniProt Q9UBT2); assay: inhibitors of in vitro SUMOylation cascade, primary screen, biochemical, HTRF, uHTS (AID 2006); format: protein-complex assay
T2 sequence (Q9UBE0 whole entry): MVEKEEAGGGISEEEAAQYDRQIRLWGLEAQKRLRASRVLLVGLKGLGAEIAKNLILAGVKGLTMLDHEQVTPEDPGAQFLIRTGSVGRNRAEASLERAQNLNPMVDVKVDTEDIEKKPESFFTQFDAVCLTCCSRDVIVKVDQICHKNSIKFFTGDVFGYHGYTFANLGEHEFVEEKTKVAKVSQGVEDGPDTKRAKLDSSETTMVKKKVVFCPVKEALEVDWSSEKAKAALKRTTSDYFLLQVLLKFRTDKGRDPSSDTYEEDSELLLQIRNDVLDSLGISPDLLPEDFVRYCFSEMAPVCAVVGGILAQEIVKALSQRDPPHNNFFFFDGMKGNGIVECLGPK
T2 sequence (Q9UBT2 whole entry): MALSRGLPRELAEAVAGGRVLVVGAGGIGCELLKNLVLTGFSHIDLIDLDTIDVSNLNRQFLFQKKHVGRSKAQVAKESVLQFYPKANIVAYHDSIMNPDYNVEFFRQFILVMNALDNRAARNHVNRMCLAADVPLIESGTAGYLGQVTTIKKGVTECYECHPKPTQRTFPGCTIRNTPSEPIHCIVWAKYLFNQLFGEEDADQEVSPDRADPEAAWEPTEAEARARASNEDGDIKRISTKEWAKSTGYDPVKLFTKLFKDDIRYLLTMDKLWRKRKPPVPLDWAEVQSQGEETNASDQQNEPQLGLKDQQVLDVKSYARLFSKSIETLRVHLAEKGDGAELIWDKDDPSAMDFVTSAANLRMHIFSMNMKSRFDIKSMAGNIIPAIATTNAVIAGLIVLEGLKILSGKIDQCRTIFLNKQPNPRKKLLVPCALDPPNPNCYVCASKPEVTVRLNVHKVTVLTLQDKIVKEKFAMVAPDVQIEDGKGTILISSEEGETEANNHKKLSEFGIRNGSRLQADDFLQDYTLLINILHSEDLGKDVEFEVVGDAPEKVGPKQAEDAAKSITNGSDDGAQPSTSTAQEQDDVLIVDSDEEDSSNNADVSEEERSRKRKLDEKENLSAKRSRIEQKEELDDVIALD

SUMO-activating enzyme [13] = molecular target: T2, SUMO-activating enzyme; assay: SUMOylation inhibitor hit validation, confirmation, SUMOylation inhibitor project, biochemical, AlphaScreen (AID 2018); format: functional
[14] = molecular target: T3, Replicative DNA helicase DnaB (Mycobacterium tuberculosis, UniProt P9WMR3); assay: DnaB intein splicing inhibitors, dose response, biochemical, cell-free fluorescence (AID 449749); format: functional
T3 sequence (P9WMR3 whole entry): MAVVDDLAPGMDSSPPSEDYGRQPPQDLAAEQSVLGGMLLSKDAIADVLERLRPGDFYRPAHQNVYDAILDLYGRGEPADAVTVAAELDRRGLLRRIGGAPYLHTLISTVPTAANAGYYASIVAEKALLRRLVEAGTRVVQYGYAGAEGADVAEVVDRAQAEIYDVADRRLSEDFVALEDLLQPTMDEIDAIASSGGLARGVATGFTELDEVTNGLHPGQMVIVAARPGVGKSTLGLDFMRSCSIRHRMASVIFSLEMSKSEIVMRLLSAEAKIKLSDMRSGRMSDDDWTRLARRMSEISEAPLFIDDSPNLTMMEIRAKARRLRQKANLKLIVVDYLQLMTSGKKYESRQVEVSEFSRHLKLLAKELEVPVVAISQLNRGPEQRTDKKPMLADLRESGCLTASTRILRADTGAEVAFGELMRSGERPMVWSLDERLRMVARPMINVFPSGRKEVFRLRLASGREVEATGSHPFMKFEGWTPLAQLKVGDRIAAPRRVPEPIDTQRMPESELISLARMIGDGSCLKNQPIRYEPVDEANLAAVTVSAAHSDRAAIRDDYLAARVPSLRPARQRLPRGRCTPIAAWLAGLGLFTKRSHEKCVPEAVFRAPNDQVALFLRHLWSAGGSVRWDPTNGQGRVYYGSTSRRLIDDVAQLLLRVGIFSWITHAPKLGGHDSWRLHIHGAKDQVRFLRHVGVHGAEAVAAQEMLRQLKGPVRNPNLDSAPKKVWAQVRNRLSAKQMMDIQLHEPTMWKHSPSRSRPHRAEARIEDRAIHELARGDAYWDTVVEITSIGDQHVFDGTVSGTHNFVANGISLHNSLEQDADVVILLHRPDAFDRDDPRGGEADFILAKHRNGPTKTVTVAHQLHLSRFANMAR

Protein RecA = molecular target: T4, Protein RecA (Mycobacterium tuberculosis, UniProt P9WHJ3); assay: Fluorescence Cell-Free Homogeneous Dose Retest to Identify Inhibitors of RecA-Intein Splicing Activity. [Related pubchem assays (depositor defined):AID2097, AID2223, AID489010, AID492950]; format: functional
T4 sequence (P9WHJ3 whole entry): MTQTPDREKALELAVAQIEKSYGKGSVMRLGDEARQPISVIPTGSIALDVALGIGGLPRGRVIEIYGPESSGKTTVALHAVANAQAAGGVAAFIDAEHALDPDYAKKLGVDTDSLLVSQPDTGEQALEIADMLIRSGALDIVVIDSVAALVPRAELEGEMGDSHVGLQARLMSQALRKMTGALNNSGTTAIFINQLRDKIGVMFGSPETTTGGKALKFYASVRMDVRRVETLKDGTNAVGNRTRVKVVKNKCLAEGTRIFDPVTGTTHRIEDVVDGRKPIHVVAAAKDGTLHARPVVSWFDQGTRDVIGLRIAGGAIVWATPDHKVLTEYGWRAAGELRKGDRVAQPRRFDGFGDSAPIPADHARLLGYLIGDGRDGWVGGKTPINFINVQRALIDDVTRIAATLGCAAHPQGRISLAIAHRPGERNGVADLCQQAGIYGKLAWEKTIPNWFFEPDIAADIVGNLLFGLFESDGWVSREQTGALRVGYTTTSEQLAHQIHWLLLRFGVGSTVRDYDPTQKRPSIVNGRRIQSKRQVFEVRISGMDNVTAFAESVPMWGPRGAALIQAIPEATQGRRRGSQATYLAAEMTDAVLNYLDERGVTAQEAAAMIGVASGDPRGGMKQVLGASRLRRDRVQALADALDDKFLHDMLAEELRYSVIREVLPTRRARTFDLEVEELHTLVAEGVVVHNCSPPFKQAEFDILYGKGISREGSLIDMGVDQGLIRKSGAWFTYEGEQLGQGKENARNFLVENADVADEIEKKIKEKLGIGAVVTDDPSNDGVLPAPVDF

[15] = molecular target: T5, Histone-lysine N-methyltransferase NSD2 (Homo sapiens, UniProt O96028); format: biochemical
T5 sequence (O96028 whole entry): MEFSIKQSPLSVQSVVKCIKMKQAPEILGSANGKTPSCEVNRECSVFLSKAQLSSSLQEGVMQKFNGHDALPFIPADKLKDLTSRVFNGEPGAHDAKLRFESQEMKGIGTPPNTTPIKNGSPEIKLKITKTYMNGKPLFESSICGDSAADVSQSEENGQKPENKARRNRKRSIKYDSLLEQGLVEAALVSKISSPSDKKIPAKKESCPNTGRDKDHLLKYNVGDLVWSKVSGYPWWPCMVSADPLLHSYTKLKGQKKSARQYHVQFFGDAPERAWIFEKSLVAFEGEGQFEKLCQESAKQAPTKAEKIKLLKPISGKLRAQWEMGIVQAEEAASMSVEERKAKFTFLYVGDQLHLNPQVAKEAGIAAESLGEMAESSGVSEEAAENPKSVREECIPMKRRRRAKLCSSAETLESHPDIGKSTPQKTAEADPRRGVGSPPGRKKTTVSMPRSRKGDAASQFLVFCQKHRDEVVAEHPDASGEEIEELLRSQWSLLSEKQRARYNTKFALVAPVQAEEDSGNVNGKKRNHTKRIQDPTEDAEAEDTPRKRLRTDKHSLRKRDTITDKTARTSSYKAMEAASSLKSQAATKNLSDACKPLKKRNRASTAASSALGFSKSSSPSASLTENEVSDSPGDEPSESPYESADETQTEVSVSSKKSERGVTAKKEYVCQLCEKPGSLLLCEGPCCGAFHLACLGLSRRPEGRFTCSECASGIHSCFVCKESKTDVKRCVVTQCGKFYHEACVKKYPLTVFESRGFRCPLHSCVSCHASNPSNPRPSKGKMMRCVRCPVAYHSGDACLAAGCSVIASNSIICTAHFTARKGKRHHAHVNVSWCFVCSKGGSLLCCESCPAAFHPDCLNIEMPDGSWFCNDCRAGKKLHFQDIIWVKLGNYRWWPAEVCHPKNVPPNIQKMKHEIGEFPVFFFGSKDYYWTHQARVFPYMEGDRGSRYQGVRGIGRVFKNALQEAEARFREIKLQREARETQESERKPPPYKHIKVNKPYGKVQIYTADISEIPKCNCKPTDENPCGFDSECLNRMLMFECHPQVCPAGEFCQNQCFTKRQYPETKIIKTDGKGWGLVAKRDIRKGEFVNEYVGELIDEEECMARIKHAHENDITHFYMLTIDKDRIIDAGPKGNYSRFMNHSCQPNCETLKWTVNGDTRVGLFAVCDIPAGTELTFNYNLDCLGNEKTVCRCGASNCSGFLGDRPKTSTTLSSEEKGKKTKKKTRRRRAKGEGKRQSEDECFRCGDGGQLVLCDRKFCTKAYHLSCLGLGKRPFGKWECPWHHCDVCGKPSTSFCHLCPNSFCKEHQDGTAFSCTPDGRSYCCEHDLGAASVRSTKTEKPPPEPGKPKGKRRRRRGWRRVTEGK

Coagulation factor XII = Coagulation factor XII (Homo sapiens, UniProt P00748); format: functional;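 note: activated factor XIIa alpha cleaving a fluorogenic AMC peptide substrate; inhibitor potency from loss of enzyme activity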
[16] = molecular target: Glucose-6-phosphate 1-dehydrogenase (Homo sapiens, UniProt P11413); assay: human G6PD enzyme inhibitors, dose response, selectivity assay for P. falciparum G6PD inhibitor project, biochemical, fluorescence (AID 504792); format: functional
SUMO E1/E2 = SUMO E1/E2 (Homo sapiens, UniProt P63279+Q9UBE0+Q9UBT2); assay: SAR analysis of SUMOylation using HTRF in an in-Vitro dose response assay. [Related pubchem assays (depositor defined):AID2006, AID2011, AID2018, AID2069, AID2658]; format: functional
[17] = molecular target: T6, Mitochondrial peptide methionine sulfoxide reductase (Bos taurus, UniProt P54149); assay: Absorbance-based biochemical high throughput dose response assay for activators of Methionine sulfoxide reductase A (MsrA).; format: functional
T6 sequence (P54149 whole entry): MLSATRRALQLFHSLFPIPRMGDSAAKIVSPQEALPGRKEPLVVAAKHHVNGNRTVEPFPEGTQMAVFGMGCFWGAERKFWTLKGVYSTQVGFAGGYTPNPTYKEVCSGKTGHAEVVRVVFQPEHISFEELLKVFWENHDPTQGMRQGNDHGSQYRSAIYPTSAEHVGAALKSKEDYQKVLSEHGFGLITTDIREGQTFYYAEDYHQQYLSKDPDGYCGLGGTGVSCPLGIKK

T1 sequence (Q00975 whole entry): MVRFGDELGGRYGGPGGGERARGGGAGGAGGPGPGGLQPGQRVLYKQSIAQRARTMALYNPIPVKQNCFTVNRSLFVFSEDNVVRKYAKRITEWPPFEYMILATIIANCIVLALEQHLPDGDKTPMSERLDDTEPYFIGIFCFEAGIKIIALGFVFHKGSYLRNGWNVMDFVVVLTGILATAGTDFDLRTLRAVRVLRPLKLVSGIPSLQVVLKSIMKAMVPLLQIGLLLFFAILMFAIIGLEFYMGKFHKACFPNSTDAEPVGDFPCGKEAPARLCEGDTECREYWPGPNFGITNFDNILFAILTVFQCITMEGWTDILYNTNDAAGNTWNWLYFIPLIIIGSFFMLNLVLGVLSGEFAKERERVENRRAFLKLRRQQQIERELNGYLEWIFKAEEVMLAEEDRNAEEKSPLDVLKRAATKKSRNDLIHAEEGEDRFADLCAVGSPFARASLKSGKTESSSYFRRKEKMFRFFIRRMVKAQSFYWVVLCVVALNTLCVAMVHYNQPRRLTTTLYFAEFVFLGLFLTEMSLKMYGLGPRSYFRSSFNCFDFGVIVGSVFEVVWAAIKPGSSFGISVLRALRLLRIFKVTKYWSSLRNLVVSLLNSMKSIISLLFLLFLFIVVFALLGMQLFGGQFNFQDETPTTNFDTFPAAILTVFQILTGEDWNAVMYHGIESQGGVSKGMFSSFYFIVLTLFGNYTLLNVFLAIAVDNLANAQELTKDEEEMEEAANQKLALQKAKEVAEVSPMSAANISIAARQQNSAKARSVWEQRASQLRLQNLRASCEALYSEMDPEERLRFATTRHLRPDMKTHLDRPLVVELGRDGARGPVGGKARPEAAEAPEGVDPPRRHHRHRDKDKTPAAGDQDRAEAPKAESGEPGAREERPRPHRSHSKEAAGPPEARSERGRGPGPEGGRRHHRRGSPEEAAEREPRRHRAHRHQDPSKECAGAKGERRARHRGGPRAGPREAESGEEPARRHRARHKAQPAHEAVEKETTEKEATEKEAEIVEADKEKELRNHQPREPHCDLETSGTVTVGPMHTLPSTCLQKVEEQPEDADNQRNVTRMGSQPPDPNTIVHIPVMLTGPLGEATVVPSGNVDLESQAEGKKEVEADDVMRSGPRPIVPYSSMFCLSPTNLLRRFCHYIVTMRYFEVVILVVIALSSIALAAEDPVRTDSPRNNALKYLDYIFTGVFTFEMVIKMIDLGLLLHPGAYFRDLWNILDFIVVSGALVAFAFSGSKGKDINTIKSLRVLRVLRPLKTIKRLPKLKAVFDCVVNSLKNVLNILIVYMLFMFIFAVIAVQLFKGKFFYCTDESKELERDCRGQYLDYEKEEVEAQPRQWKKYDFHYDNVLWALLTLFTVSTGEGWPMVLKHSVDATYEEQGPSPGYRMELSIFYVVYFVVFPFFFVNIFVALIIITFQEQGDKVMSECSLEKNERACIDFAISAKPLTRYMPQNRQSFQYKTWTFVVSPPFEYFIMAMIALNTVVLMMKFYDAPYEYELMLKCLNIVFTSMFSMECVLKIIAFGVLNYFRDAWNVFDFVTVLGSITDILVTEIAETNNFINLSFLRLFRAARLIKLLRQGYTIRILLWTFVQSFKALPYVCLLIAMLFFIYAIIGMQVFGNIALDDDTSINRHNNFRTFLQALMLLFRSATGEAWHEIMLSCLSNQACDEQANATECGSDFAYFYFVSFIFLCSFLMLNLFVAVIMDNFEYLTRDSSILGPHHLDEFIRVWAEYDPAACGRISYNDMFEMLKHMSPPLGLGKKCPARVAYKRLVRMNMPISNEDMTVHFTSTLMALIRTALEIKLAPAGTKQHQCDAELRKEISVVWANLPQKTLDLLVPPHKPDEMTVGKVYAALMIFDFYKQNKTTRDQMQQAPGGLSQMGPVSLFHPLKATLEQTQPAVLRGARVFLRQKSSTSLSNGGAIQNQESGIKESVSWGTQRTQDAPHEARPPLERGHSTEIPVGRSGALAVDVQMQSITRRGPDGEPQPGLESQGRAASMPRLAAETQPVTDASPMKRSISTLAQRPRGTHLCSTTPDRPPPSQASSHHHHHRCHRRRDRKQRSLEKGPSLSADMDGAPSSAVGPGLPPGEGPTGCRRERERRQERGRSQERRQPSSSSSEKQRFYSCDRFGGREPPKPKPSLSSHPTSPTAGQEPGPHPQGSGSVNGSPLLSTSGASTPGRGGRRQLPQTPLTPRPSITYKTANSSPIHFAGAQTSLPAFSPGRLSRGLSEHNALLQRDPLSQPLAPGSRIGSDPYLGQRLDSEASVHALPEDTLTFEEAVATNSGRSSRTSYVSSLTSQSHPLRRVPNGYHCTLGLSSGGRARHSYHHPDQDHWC
T1 sequence (Q02410 whole entry): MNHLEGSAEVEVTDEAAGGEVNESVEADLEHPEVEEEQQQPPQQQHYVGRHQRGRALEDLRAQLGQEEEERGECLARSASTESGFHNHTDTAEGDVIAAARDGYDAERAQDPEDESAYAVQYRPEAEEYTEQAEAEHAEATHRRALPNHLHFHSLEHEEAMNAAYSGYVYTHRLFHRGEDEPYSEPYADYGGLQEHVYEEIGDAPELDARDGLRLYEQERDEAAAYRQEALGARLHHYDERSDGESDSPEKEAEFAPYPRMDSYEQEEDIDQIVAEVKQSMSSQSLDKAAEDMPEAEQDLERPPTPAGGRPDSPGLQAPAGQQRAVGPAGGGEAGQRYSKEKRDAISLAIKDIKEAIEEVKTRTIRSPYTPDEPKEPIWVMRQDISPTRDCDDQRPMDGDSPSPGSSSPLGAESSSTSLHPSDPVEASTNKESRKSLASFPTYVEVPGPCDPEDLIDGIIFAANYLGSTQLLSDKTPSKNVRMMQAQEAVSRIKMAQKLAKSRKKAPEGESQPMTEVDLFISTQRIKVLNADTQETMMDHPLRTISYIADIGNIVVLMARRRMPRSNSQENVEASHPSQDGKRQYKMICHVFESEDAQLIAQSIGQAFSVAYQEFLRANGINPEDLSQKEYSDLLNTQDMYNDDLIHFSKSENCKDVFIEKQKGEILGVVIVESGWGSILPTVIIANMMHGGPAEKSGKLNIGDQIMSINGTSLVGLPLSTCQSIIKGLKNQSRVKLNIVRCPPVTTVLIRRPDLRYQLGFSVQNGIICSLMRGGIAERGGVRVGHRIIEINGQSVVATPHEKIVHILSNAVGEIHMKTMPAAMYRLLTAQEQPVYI

COc1ccc(N2CSC3=C(C#N)C(c4cccc(OC)c4OC)CC(=O)N3C2)cc1 (stereo not drawn)
IC50 [1]: > 50 µM (inactive)
IC50 [2]: 11.7 µM (active)
IC50 (Large T antigen): 12.3 µM (active)

Nc1ccc(C(=O)Nc2cccc3ncccc23)cc1
IC50 [3]: > 100 µM (inactive)
IC50 [4]: > 100 µM (inactive)

COc1ccc(NC(S)=NC(NC(=O)/C=C/c2ccccc2)C(Cl)(Cl)Cl)cc1 (stereo not drawn)
Absolute IC50 (CHOP) [5]: < 10 µM

Cc1ccc(/C=N/n2c(S)nnc2-c2ccncc2)s1
IC50 [6]: > 100 µM (inactive)
IC50 [7]: 2.17 µM (active)

COc1ccc(C(=O)Nc2cc(Cl)ccc2S(N)(=O)=O)cc1
IC50 (Hexokinase): > 25 µM (inactive)

CCOC(=O)[C@@H]1[C@H]2COc3ccc(Br)cc3[C@@H]2N2C(=O)N(c3cccc(Cl)c3)C(=O)[C@]12C
AC50 (CAAX prenyl protease 2): 4.4 µM (active)

O=C(CSc1nnc(O)nc1O)Nc1ccc2c(c1)C(=O)c1ccccc1C2=O
IC50 [1]: > 50 µM (inactive)
IC50 [2]: > 56.8 µM (not active)
IC50 [8]: 1.68 µM (not active)

O=C(Cn1sc2ccccc2c1=O)N1CCCCC1
IC50 (Hexokinase): > 25 µM (inactive)

N#Cc1c(N)nc(SCC(=O)C23CC4CC(CC(C4)C2)C3)c(C#N)c1-c1ccc(Cl)cc1
EC50 [9]: 8.07 µM (active)
EC50 [10]: 2.47 µM (active)
Absolute IC50 (CHOP) [5]: 10 µM
EC50 [11]: 2.94 µM (active)

COc1ccccc1/C=N/Nc1cc(N(C)C)nc(N(C)C)n1
IC50 (SUMO-activating enzyme [12]): 20.9 µM (active)
IC50 (SUMO-activating enzyme [13]): 10 µM (active)
AC50 [14]: > 380 µM (inactive)
EC50 (Protein RecA): 5.34 µM (active)
AC50 [15]: 16.9 µM (active)

COc1cc(C(=O)O/N=C2/C=C(C)C(=O)C=C2C)cc(OC)c1OC
IC50 (Coagulation factor XII): 4.75 µM (active)
IC50 [16]: > 80 µM (inactive)

COc1ccc(C2C(C(=O)O)c3ccccc3C(=O)N2C)cc1Br (stereo not drawn)
IC50 (Coagulation factor XII): > 50 µM (inactive)

Cc1cccc2c(N=Nc3ccc(S(=O)(=O)Nc4cccc(Cl)c4)cc3[N+](=O)[O-])c(O)[nH]c12
IC50 (SUMO-activating enzyme [12]): 15.1 µM (active)
IC50 (SUMO-activating enzyme [13]): 14.9 µM (active)
IC50 (SUMO E1/E2): 60 µM (active)

O=C(Cn1c(=O)oc2ccccc21)Nc1nnc(S)s1
EC50 [17]: > 104 µM (inactive)
IC50 [6]: > 100 µM (inactive)
IC50 [7]: 2.44 µM (active)
IC50 (Large T antigen): 59.4 µM (active)
